The values below come from US7488756B2, “Use of non-competitive and selective GluR5 antagonists as glutamate receptor modulating compounds” (Neurosearch A/S, priority 2001, dated 2009).

The target of test [1] is T1, GluR5 receptor (Homo sapiens, UniProt P39086).
T1 construct: expressed in transfected cells; host or cells: HEK293
Kind of test: Functional GluR5 assay: inhibition of domoate-induced increase in intracellular free calcium (FLIPR, Fluo-4). The test is classed as cell-based. Conditions: for IC50: HEK293 cells stably expressing un-edited GluR5, inhibition of 2 μM domoate-induced Cai elevation. From the text:
(§1) In this example the inhibition of domoate-induced increase in intracellular free calcium concentration (Cai) is used as a measure for glutamate antagonist activity of test substances. Domoate is a close analog of kainite, and a potent glutamate agonist.
(§2) Human embryonic HEK293 cells stably expressing GluR5 receptors and GluR6 receptors, respectively, in their un-edited forms, are used.
In this example the activity of Compound A of the invention (5-carboxyl-2,4-di-benzamido-benzoic acid), obtained according to Ueda & Imai [Ueda M & Imai Y: Synthesis of polyamides by ring-opening polyaddition of bis-3,1-benzoxazin-4-ones with aliphatic diamines; J. Polym. Sci. 1979 17 (4) 1163-1173], is compared to the action of ATPA, a GluR5 receptor agonist, and CNQX, a GluR5 receptor antagonist that inhibits the activity of the agonist.
(§3) Fluorometric methods for measuring Cai have been developed [see e.g. Tsien et al., J. Cell. Biol. 1982 94 325]. The calcium-chelating fluorochromes (tetracarboxylic acids) are loaded into the cells as acetoxymethyl esters and subsequently released by unspecific intracellular esterase's. The free acids, which are impermeable to the cell membrane, are maintained in the cell for hours. The fluorescence spectrum (either EXmax, EMmax or both) is changed by the binding of calcium. The fluorescence is then directly proportional to the Cai.
(§4) The present method uses the fluorochromes Fluo-3 or Fluo-4 as the calcium-chelator. Fluo-3/Fluo-4 is virtually nonfluorescent without calcium but the calcium-Fluo-3/Fluo-4 complexes show a bright fluorescence (EMmax=526 nm) after excitation around 500 nm (EXmax=505 nm). This fluorescence spectrum is similar to the spectrum of fluorescein. Since excitation and emission is in the visible light region of the spectrum standard equipment without quarts optics may be used.
The HEK293 cells stably expressing GluR5 or GluR6 expressing are grown in Dulbecco's Modified Eagle Medium (DMEM) containing 10% foetal calf serum, in polystyrene culture flasks (175 cm^2) in a humidified atmosphere of 5% CO2 in air, at 37° C. Confluency of cells should be 80-90% on day of plating. GluR5 or GluR6 cells are rinsed with 10 ml of phosphate buffered saline (PBS), then added 1.5 ml of Trypsin-EDTA and left in the incubator for 5 min. After addition of 10 ml of growth media, cells are resuspended by trituration with a 10 ml pipette 15 times. […]
(§5) After the loading period, the loading media is aspirated and the cells are washed twice with 100 μl Na^+ free Ringer solution (NN: 10 mM HEPES, 140 mM Choline chloride, 5 mM KCl, 1 mM MgCl2, 10 mM CaCl2, pH 7.4) to remove extracellular dye. 100 μl NN is added to each well, and the fluorescence is measured in the FLIPR (Fluorescence Image Plate Reader). […]

For test [2], the target named is T2, GluR6 receptors (Homo sapiens, UniProt Q13002).
T2 construct: expressed in transfected cells; host or cells: HEK293
T2 sequence (Q13002 32-908): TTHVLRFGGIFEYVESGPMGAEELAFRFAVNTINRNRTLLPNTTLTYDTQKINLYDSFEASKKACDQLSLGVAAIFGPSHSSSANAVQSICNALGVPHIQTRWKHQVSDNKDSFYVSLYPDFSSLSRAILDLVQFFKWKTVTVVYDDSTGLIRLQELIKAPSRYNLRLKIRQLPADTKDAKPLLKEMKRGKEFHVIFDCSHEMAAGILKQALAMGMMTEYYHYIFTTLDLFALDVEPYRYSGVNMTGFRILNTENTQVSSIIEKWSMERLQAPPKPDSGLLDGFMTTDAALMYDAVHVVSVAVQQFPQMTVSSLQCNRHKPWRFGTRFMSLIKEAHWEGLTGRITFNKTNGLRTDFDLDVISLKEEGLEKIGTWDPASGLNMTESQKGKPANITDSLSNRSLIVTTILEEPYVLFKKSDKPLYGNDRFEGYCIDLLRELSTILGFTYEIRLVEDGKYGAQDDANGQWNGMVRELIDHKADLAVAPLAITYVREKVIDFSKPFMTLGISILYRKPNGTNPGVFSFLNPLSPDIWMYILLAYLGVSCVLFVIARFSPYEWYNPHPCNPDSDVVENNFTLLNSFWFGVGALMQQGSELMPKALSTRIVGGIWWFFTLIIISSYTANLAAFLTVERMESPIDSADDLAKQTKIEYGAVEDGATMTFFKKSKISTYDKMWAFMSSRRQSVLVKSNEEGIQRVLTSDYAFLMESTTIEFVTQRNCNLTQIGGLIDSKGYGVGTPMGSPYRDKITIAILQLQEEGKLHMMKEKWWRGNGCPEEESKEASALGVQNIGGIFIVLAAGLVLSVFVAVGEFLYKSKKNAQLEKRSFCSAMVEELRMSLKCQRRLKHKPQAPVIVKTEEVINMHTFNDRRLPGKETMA
Put plainly: Functional GluR6 assay: inhibition of domoate-induced increase in intracellular free calcium (FLIPR, Fluo-4). The test is classed as cell-based. Conditions: for IC50: HEK293 cells stably expressing un-edited GluR6, inhibition of 2 μM domoate-induced Cai elevation.
Text: as §1, §2, §3, §4
The HEK293 cells stably expressing GluR5 or GluR6 expressing are grown in Dulbecco's Modified Eagle Medium (DMEM) containing 10% foetal calf serum, in polystyrene culture flasks (175 cm^2) in a humidified atmosphere of 5% CO2 in air, at 37° C. Confluency of cells should be 80-90% on day of plating. GluR5 or GluR6 cells are rinsed with 10 ml of phosphate buffered saline (PBS), then added 1.5 ml of Trypsin-EDTA and left in the incubator for 5 min. After addition of 10 ml of growth media, cells are resuspended by trituration with a 10 ml pipette 15 times.
The cells are seeded at a density of 0.5-1×10^6 cells/ml (100 μl/well) in black-walled, clear bottom, 96-well plates pre-treated with 0.001% PEI solution (75 μl/well for ≧30 min). Plated cells were allowed to proliferate for 24 h before loading with dye.
Fluo-4-AM (1 mg; Molecular Probes) is added 912 μl DMSO containing 25 mg/150 μl Pluoronic F-127 (Molecular Probes). […]
as §5
Reading intervals: preincubation—10 sec.×7 and 3 sec.×3 antagonist phase—3 sec.×17 and 10 sec.×12 […]

Test [3] has as its target T1, GluR5 receptor. Put plainly: GluR5 binding assay: displacement of 3H-ATPA from membranes of HEK293 cells expressing GluR5. Here is the method: The amount of radioactivity on the filters is determined by conventional liquid scintillation counting. Specific binding is total binding minus non-specific binding.
Test [4] addresses T1, GluR5 receptor. As to conditions: Clarke et al., Nature 1997 389 599-603; read-out: Kd of binding to the GluR5 receptor; cited from earlier work.
Where [5] appears, read: inhibition of specific binding of 3 nM 3H-ATPA, HEK293 GluR5 cell membranes, 60 minutes at 2° C., read-out: GluR5 Binding IC50.

T1 sequence (P39086 31-918): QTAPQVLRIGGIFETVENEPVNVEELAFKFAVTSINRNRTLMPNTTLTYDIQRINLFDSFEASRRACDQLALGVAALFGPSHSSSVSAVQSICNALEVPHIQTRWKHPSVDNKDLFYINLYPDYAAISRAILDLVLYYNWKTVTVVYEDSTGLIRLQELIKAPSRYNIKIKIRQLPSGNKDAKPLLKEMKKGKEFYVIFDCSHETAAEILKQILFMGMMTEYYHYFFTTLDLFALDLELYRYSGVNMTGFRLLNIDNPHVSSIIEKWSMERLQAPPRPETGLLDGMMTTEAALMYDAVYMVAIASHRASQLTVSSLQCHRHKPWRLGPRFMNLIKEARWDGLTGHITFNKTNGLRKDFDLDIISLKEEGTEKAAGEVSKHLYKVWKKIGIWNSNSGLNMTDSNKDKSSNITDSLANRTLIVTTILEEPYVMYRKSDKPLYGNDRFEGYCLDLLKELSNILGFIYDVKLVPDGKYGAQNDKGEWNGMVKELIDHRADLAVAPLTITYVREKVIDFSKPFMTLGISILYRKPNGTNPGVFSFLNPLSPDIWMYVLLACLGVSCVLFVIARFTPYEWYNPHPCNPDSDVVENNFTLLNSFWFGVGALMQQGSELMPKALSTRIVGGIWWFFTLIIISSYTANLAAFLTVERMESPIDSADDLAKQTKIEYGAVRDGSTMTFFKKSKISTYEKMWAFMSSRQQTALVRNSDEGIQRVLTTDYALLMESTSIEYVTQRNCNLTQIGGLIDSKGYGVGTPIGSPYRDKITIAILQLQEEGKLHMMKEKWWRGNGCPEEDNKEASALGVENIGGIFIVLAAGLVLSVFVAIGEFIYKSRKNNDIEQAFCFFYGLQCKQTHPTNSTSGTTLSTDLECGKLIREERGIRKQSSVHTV

As to `O=C(Nc1cc(NC(=O)c2ccccc2)c(C(=O)O)cc1C(=O)O)c1ccccc1` [Compound A, 5-carboxyl-2,4-di-benzamido-benzoic acid], the IC50 is 1900 nM in test [1], over 30000 nM in test [2] and over 10000 nM in test [3] (setting [5]). The “Mode of action at the GluR5 receptor” value in test [1] (conclusion from functional activity without binding (Table 1)) is “non-competitive antagonist of the GluR5 receptor”. Besides, the “Selectivity GluR5 over GluR6” value in test [2] (conclusion from functional GluR5 and GluR6 data (Table 1)) is “activity only at the GluR5 receptor, not at the GluR6 receptor”.
Regarding `N#Cc1cc2[nH]c(=O)c(=O)[nH]c2cc1[N+](=O)[O-]` [CNQX], the IC50 in test [1] was determined as 3300 nM; in test [2] it was 7600 nM; in test [3] (setting [5]) it was 720 nM.
`CC(C)(C)c1onc(O)c1CC(N)C(=O)O` (stereo not drawn) [ATPA, 2-amino-3-(3-hydroxy-5-tert-butylisoxazol-4-yl)propionic acid]: the figures for the half-inhibitory concentration (IC50) in test [1], in test [2] and in test [3] were 700 nM, over 30000 nM and 24 nM, respectively. The Kd in test [4] was 4.3 nM.
